Biological target: T1, lactose permease (LacY) (Escherichia coli, UniProt P02920, C154G)
T1 construct: LacY with all six native Trp residues and a C-terminal His6-Tag, DDM-solubilized, purified from PE-containing cells (correct topology)
T1 sequence (P02920 1-417 C154G): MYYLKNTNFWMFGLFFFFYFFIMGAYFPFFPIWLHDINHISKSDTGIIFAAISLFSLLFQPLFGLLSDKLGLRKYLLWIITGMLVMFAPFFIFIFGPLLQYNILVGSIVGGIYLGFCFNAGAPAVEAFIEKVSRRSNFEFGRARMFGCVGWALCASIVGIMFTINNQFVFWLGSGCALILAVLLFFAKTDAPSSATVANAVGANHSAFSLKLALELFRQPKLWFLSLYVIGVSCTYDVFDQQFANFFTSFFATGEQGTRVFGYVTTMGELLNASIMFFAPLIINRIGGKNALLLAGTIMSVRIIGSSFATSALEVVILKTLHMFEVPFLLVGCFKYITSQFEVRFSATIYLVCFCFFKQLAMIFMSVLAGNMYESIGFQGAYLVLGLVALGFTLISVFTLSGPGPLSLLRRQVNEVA
Assay: Trp → α-NPG FRET (quenching of W151) on purified protein in DDM micelles
Type: binding

O=[N+]([O-])c1ccc(O[C@H]2O[C@H](CO)[C@H](O)[C@H](O)[C@H]2O)cc1 [α-NPG]
Kd: 5.9 µM
